The results in this text go back to ChEMBL document CHEMBL1201862, “PubChem BioAssay data set” (2004).

The term GI50 denotes the concentration giving 50% growth inhibition.

Some test systems named below: HT-29; T47D; Hs-578T; NCI/ADR-RES; NCI-H226; SNB-19; SR; BT-549; ACHN; SNB-75; MDA-N; MDA-MB-231; MOLT-4; IGROV-1; NCI-H522; HCT-116; PC-3; HCC 2998; SK-MEL-28; SK-MEL-5.
Test in all cases: DTP human tumour cell line panel, 48 h

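Cultured in 96-well plates, cells were exposed to test compound for 48 hours across five concentrations. GI50: concentration for 50% inhibition of growth.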 Active and inactive are the calls of the source. Rule as the data show it: active = GI50 up to about 1.1 µM and inactive = higher.

`CCOc1ncn(-c2ccc(NC(=S)Nc3cnccn3)cc2)n1`: the GI50 in the experiment with HT-29, with T47D, in the experiment with Hs-578T, with NCI/ADR-RES, in the experiment with NCI-H226 and with SNB-19 was > 10 µM (inactive) throughout. For the same compound, the GI50 with SR, with BT-549, in the experiment on ACHN, with SNB-75, in the experiment on MDA-N and in the experiment with MDA-MB-231 was > 10 µM (inactive) each time. The GI50 with MOLT-4, in the experiment on IGROV-1 and with NCI-H522 was > 10 µM (inactive) throughout.
Consider `COC(=O)CC[N+]1=CCC(c2ccccc2)(c2ccccc2)O1`, for which the GI50 in the experiment with HT-29, with T47D, in the experiment with HCT-116, in the experiment on Hs-578T, in the experiment with NCI-H226 and with PC-3 was > 100 µM (inactive) throughout. Moreover, the GI50 was > 100 µM (inactive) in the experiment on HCC 2998; > 100 µM (inactive) in the experiment with SNB-19; > 100 µM (inactive) with SK-MEL-28; > 100 µM (inactive) in the experiment on BT-549; > 100 µM (inactive) in the experiment on ACHN; 18.5 µM (inactive) in the experiment on MDA-N. In addition, the GI50 in the experiment with SK-MEL-5, in the experiment on MDA-MB-231, with MOLT-4, with IGROV-1 and in the experiment with NCI-H522 was > 100 µM (inactive) in each case.
`COC(=O)NC(Nc1ccccn1)(C(F)(F)F)C(F)(F)F`: the GI50 with HT-29, in the experiment on T47D, in the experiment on HCT-116, with Hs-578T, with NCI/ADR-RES and in the experiment on NCI-H226 was > 100 µM (inactive) in each case. The GI50 in the experiment on HCC 2998, in the experiment on SNB-19, in the experiment on SR, with SK-MEL-28, in the experiment with BT-549 and with ACHN was > 100 µM (inactive) throughout. For the same compound, the GI50 in the experiment on SNB-75, in the experiment with MDA-N, in the experiment on SK-MEL-5, in the experiment on MDA-MB-231, in the experiment on MOLT-4 and in the experiment on IGROV-1 was > 100 µM (inactive) throughout. Moreover, in the experiment on NCI-H522, the GI50 was > 100 µM (inactive).
Take `COC1C(O)CC(OC2CC(OC3CC(O[C@@H]4C(=O)c5c(cc6cc(OC7CC(OC8CC(O)C(O)C(C)O8)C(O)C(C)O7)c(C)c(O)c6c5O)C[C@H]4[C@H](OC)C(=O)[C@@H](O)[C@@H](C)O)OC(C)C3O)OC(C)C2O)OC1C` (some centres undefined): the GI50 in the experiment on HT-29 was < 0.0168 µM (active); with T47D, < 0.01 µM (active); in the experiment on HCT-116, < 0.01 µM (active); with Hs-578T it was < 0.01 µM (active); in the experiment on NCI-H226, < 0.104 µM (active); in the experiment on HCC 2998, 0.0136 µM (active). Besides, the GI50 in the experiment on SNB-19 is < 0.0194 µM (active); in the experiment with SR it was < 0.01 µM (active); with SK-MEL-28, < 0.0126 µM (active); in the experiment with BT-549 it was < 0.01 µM (active); with ACHN it was < 0.0191 µM (active); in the experiment on SNB-75 it was < 0.0331 µM (active). For the same compound, the GI50 was < 0.0138 µM (active) in the experiment on SK-MEL-5, 0.0574 µM (active) in the experiment on MDA-MB-231, < 0.0159 µM (active) in the experiment with MOLT-4 and < 0.0118 µM (active) in the experiment on NCI-H522.
As to `CC1=NN(c2nc(N)nc(C(C)Sc3cc(Cl)c(C)cc3S(N)(=O)=O)n2)C(C)(C)C1` (centres undefined), the GI50 with HT-29, in the experiment with T47D, in the experiment on HCT-116, with Hs-578T, in the experiment with NCI/ADR-RES and in the experiment with NCI-H226 was > 10 µM (inactive) throughout. Besides, the GI50 with PC-3, with HCC 2998, with SNB-19, with SR, in the experiment on SK-MEL-28 and with BT-549 was > 10 µM (inactive) in each case. The GI50 with ACHN, in the experiment with SNB-75, in the experiment on MDA-N, in the experiment on SK-MEL-5, in the experiment with MOLT-4 and in the experiment with IGROV-1 was > 10 µM (inactive) in each case. Moreover, the GI50 with NCI-H522 is > 10 µM (inactive).
In the case of `COC(=O)CCCc1c(-c2[nH]c3ccccc3c2CCCC(=O)OC)[nH]c2ccccc12`, the GI50 in the experiment with HT-29, in the experiment on T47D, in the experiment on HCT-116, with Hs-578T, in the experiment on NCI/ADR-RES and with NCI-H226 was > 100 µM (inactive) throughout. Also, the GI50 is > 100 µM (inactive) in the experiment on PC-3; > 100 µM (inactive) with SNB-19; > 100 µM (inactive) in the experiment with SK-MEL-28; > 100 µM (inactive) with BT-549; > 100 µM (inactive) with ACHN; 13.6 µM (inactive) with SNB-75. In addition, the GI50 in the experiment with MDA-N, with SK-MEL-5, in the experiment on MDA-MB-231, in the experiment on MOLT-4, in the experiment with IGROV-1 and with NCI-H522 was > 100 µM (inactive) each time.
As to `CCOP(=O)(OCC)C(N)c1ccc(Cl)cc1` (centres undefined), the GI50 with HT-29, with T47D, with HCT-116, with Hs-578T, in the experiment with NCI/ADR-RES and with PC-3 was > 100 µM (inactive) in each case. In addition, the GI50 in the experiment on SNB-19, in the experiment with SK-MEL-28, in the experiment on BT-549, with ACHN, in the experiment with MDA-N and in the experiment with SK-MEL-5 was > 100 µM (inactive) each time. The GI50 in the experiment on MDA-MB-231, in the experiment on MOLT-4, in the experiment on IGROV-1 and in the experiment with NCI-H522 was > 100 µM (inactive) each time.
Regarding `CCOC(=O)C(C(=O)OCC)=C1NC2(c3ccccc3Nc3ccc(C)cc32)C(C(=O)OC)S1` (centres undefined), the GI50 with HT-29 was 23.9 µM (inactive); in the experiment with T47D it was 3.96 µM (inactive); in the experiment on HCT-116, 9.64 µM (inactive); with Hs-578T, 10.3 µM (inactive); with NCI/ADR-RES it was 17.5 µM (inactive); in the experiment on NCI-H226, 29.9 µM (inactive). The GI50 in the experiment with PC-3 is 6.85 µM (inactive); with HCC 2998, 15.9 µM (inactive); with SNB-19, 55.3 µM (inactive); in the experiment on SR, 6.34 µM (inactive); in the experiment with SK-MEL-28 it was > 100 µM (inactive); in the experiment with BT-549 it was 43.6 µM (inactive). Besides, the GI50 in the experiment with ACHN was 21.4 µM (inactive); in the experiment with SNB-75, 14.9 µM (inactive); in the experiment with MDA-N, 32.9 µM (inactive); in the experiment with SK-MEL-5, 13.9 µM (inactive); in the experiment on MOLT-4, 5.58 µM (inactive); in the experiment with IGROV-1, 18.4 µM (inactive). Further, the GI50 in the experiment with NCI-H522 is 13.6 µM (inactive).
